From US8207188B2, “Treatment of diseases modulated by a H4 receptor agonist” (priority 2006, dated 2012)
Several values for one entry are separate records, joined by “and”; a condition that tells them apart may be missing. Equal entries are not always repeated.

Tests used:
[1] = tested on: human TF1 cells that express H4R; assay: TF1 cell proliferation assay (GM-CSF promoted); assay type: cell-based
Description: Tritoqualine was tested on a cell proliferation assay using human TF1 cells that express H4R.
TF1 cell proliferation is promoted using granulocyte/macrophage colony-stimulating factor (GM-CSF). In this cell proliferation model H4R agonists inhibit cell proliferation. Clobenpropit (CB), a known H4R agonist at a dose of 10^−5M (10 μM) was used as a known cell proliferation inhibition control. […] Each experiment used 100,000 TF1 cells/mL incubated for three days with GM-CSF (10 ng/mL). After addition of TRQ in the range of 10^−5M (10 μM) to 10^−7 M (0.1 μM), and incubation for 3 days, cell proliferation was assessed and compared to that of 10 μM CB.

[2] = Spirometry parameter FEV1 in COPD patients; assay type: in vivo, human; design: T0 (initial visit) FEV1: unit not given here
Description: At the initial visit to the physician (T0), the patients were examined and the spirometry parameter FEV1 was recorded. Tritoqualine 200 mg/day were added to the patient's existing drug therapy. […] During each visit the patient's overall health and the FEV1 parameter was assessed by spirometry. […]

H4R = molecular target: T1, H4R (Mus musculus, UniProt Q91ZY2); assay: Cell cycle status after H4R silencing with siRNA; assay type: cell-based; settings: 10 μM; H4R siRNA transfected c-kit+ cells
T1 construct: endogenous in cells; host or cells: freshly sorted c-kit+ haematopoietic progenitor cells
T1 sequence (Q91ZY2 1-391): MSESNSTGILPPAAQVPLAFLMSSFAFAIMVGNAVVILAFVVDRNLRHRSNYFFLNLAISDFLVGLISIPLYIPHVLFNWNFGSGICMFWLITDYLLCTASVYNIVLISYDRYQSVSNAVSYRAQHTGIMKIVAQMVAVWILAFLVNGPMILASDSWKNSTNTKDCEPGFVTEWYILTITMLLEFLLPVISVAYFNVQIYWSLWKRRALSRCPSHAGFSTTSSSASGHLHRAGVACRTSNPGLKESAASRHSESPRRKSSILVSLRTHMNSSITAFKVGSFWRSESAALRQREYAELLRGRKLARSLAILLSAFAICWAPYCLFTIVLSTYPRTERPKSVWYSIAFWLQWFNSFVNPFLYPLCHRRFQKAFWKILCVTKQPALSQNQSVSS
Description: H4R silencing was performed with freshly sorted c-kit^+ cells. For transfection, 3 μl of HiPerFect reagent (Qiagen; Courtaboeuf, France) and 4 μl ([…]) of human and 8 μl (80 pmol) of murine H4R siRNA, scrambled FITC-labeled or unconjugated control siRNAs (all from Santa Cruz Biotechnology) were incubated in 50 μl x-vivo medium (Cambrex; East Rutherford, N.J.) for 20 min at room temperature. The mixture was then added to 50 μl of cell suspension at a final concentration of 10^6 cells/ml and incubated for 20 h, when transfection efficiency was verified with scrambled FITC-conjugated siRNA. Cells were then centrifuged and resuspended at a concentration of 10^5 cells/ml in StemSpan medium with growth factor cocktail. The extinction of H4R protein expression was ascertained by FACS analysis after 24 h. After 3 days of culture with or without tritoqualine (10 μM) or Clobenpropit (10 μM) cells were counted and their viability was assessed by trypan blue exclusion. The cell cycle status was assessed after an overnight incubation.

c-kit+ BM cells = assay: Cell cycle status of c-kit+ BM cells with pertussis toxin; assay type: cell-based, murine; settings: 10 μM, 2 h
Description: Progenitor-enriched murine c-kit^+ BM or cord blood-derived CD34^+ cells were prepared by positive magnetic selection, suspended at a final concentration of 10^5 per ml in serum-free StemSpan medium (StemCell Technologies) and cultured up to 3 days in the presence of 10 ng of IL-3, 10 ng of IL-6 and 50 ng of SCF (Stem Cell Factor) per ml, with or without Clobenpropit (10^−5 M), Tritoqualine or both.
Magnetically sorted c-kit^+ BM cells were incubated for 2 h in StemSpan medium with growth factor cocktail alone or in the presence of 10^−5 M Clobenpropit, Tritoqualine or enantiomers. The cell cycle status was then assessed using Vybrant DyeCycle Violet (VDV) Stain (Invitrogen), according to the manufacturer's instructions.
The effect of Bordetella pertussis toxin (PTX; 100 ng/ml), an inhibitor of Gi/o coupling to the H4R, on the cell cycle arrest promoted by receptor activation was evaluated in the same conditions. After incubation, cells were analyzed using FlowJo software.

[3] = tested on: Colony Forming Cells (CFC, mouse medullary cells C57B1/6) expressing H4R; assay: Cell cycle analysis of haematopoietic progenitor cells (propidium iodide, FACS); assay type: cell-based; settings: 10 μM
Description: Haematopoietic progenitor cells were incubated for 1-3 day(s) with a cocktail of growth factors (IL-3, 10 ng/ml, IL-6 10 ng/ml), […] (50 ng/ml) in the culture medium StemSpan® (without serum) in the presence and absence of TRQ and H4R antagonist (JNJ7777120, Sigma Aldrich).
Cells were later stained with propidium iodide (PI) for the analysis of the cell cycle according to the following protocol:
2×10^6 cells/ml were labelled with CD1 17-FITC for 20 min in PBS, then washed in PBS and stained with PBS 1% formaldehyde, without methanol, at 4° C. for 5 min and again washed in PBS.
The cells were then lysed with 1 ml of PVTritonX100 and RNAse without DNAse (0.2 mcg/ml), PI (20 mcg/ml), and incubated in PBS for 30 min at ambient temperature.
The lysed cells were analyzed with FACS scan (FL2-area IFL2-width) for cell cycle analysis and FL1 for labelling of cell Surface.
10^6 cells enriched in haematopoietic stem cells were incubated in 2 ml of CFSE […] in PBS 10 min, 37° C. The reaction was stopped by the addition of cold PBS in excess (5×) and centrifuged for 5 min at 1700 rpm.
Cells were resuspended in the culture medium StemSpan® (without serum) and stimulated with the growth Factor cocktail, and analyze in FACs scan (FL1) after 72 hours incubation.

Row | SMILES | inhibition of cell proliferation ([1]; 0.1 μM) | inhibition at 10 µM ([1]; Homo sapiens, TF-1, 72 h, 10 μM, 3 days, three separate assays (n=3)) [%] | inhibition at 1 µM ([1]; Homo sapiens, TF-1, 1 μM) [%] | T0 (initial visit) FEV1 ([2]; Example 12, 13 COPD patients, one line per patient, baseline before Tritoqualine) | improvement of FEV1 from visit T0 to T1 (paired t-test) ([2]; Example 12, 13 patients, P=0.0012) | Mean, Visit T1 ([2]; Example 12, N 13, 6-8 weeks of Tritoqualine 200 mg/day, FEV1 relative to expected normal value) | Mean, Visit T0 ([2]; Example 12, N 13, baseline, FEV1 relative to expected normal value) | FEV1 as percent of expected normal value ([2]; Example 12, per patient, 6-8 weeks of Tritoqualine 200 mg/day) | FEV1 as percent of expected normal value ([2]; Example 12, per patient, baseline) | T2 (6-8 weeks follow-up visit) FEV1 normalized ([2]; Example 12, per patient, Tritoqualine 200 mg/day added to existing therapy) | activity inhibiting the cell cycle at the G0/G1 phase after H4R siRNA (H4R) | H4R agonist activity (percentage of cells at the G0/G1 phase) (c-kit+ BM cells) | haematopoietic progenitor cells blocked (G0/G1) [3]
1 | CCOc1c(N)c2c(c(OCC)c1OCC)C(C1c3c(cc4c(c3OC)OCO4)CCN1C)OC2=O (racemic) [Tritoqualine, 7-Amino-4,5,6-triethoxy-3-(5,6,7,8-tetrahydro-4-methoxy-6-methyl-1,3-dioxolo[4,5-g]isoquinolin-5-yl) phthalide] | no inhibition of cell proliferation | 49 | 18 | 1.00 (2×) and 2.39 and 1.86 (2×) and 1.60 and 1.53 and 1.64 and 1.32 and 0.82 and 0.58 and 2.28 and 1.30 | statistically significant improvement | 77.69 | 65.3 | 50.76% and 97.74% and 85.50% and 71.77% and 92.96% and 72.24% and 87.41% and 64.90% and 68.42% and 43.53% and 88.24% and 88.89% and 105.12% | 50.76% and 89.85% and 47.33% and 76.56% and 71.83% and 62.36% and 74.07% and 53.88% and 53.95% and 34.12% and 83.82% and 72.22% and 86.51% | 1.00 and 2.60 and 3.36 and 1.50 and 1.98 and 1.90 and 1.18 and 1.59 and 1.04 and 0.74 and 2.40 and 1.60 and 2.26 |  |  | 
2 | CCOc1c(N)c2c(c(OCC)c1OCC)[C@H]([C@H]1c3c(cc4c(c3OC)OCO4)CCN1C)OC2=O [E1] |  |  |  |  |  |  |  |  |  |  | reversed | H4R agonist activity similar to the one of CB | Approximately 48%
3 | CCOc1c(N)c2c(c(OCC)c1OCC)[C@@H]([C@@H]1c3c(cc4c(c3OC)OCO4)CCN1C)OC2=O [E2] |  |  |  |  |  |  |  |  |  |  | reversed | H4R agonist activity similar to the one of CB | Approximately 60%
